Reference: ChEMBL document CHEMBL4622995, “Aryl Ether-Derived Sphingosine-1-Phosphate Receptor (S1P1) Modulators: Optimization of the PK, PD, and Safety Profiles” (ACS Med Chem Lett, 2020)

Assays:
[1] = Cardiotoxicity in human iPSC derived cardiomyocytes assessed as reduction in beating rate at 10 nM; format: toxicity, cell-based, Cardiac muscle cell
[2] = Cardiotoxicity in human iPSC derived cardiomyocytes assessed as reduction in beating rate at 1 nM; format: toxicity, cell-based, Cardiac muscle cell
[3] = tested on: Rattus norvegicus; experiment: Reduction in circulating lymphocytes count in Lewis rat peripheral blood at 2 mg/kg, po measured after 24 hrs by hematology analyzer based analysis; format: functional
[4] = Elimination half-life in Lewis rat at 2 mg/kg, po; format: ADME, organism-based; details: in vivo, read-out: beta t1/2 (converted)
[5] = tested on: Rattus norvegicus; experiment: Reduction in circulating lymphocytes count in Lewis rat peripheral blood at 0.1 mg/kg, po measured after 24 hrs by hematology analyzer based analysis; format: functional
[6] = tested on: Rattus norvegicus; experiment: Reduction in circulating lymphocytes count in Lewis rat peripheral blood at 0.3 mg/kg, po measured after 24 hrs by hematology analyzer based analysis; format: functional
[7] = Elimination half-life in Lewis rat at 0.3 mg/kg, po; format: ADME, organism-based; details: in vivo, read-out: beta t1/2 (converted)
[8] = Pulmonary toxicity in Lewis rat assessed as elevation of BAL protein content at 2 mg/kg, po; format: organism-based; details: in vivo
[9] = Pulmonary toxicity in Lewis rat assessed as elevation of BAL protein content at >30XED50, po; details: in vivo
[10] = tested on: Rattus norvegicus; experiment: Reduction in circulating lymphocytes count in po dosed Lewis rat peripheral blood measured after 24 hrs by hematology analyzer based analysis; format: functional
[11] = tested on: Rattus norvegicus; experiment: Reduction in circulating lymphocytes count in Lewis rat peripheral blood at 0.05 mg/kg, po measured after 24 hrs by hematology analyzer based analysis; format: functional
[12] = target: T1, Sphingosine kinase 2 (Rattus norvegicus, UniProt A6JB73); experiment: Drug metabolism in Sprague-Dawley rat assessed as SphK2-mediated compound phosphorylation by measuring ratio of phosphorylated compound to parent compound measured after 24 hrs; format: ADME
T1 sequence (A6JB73 whole entry): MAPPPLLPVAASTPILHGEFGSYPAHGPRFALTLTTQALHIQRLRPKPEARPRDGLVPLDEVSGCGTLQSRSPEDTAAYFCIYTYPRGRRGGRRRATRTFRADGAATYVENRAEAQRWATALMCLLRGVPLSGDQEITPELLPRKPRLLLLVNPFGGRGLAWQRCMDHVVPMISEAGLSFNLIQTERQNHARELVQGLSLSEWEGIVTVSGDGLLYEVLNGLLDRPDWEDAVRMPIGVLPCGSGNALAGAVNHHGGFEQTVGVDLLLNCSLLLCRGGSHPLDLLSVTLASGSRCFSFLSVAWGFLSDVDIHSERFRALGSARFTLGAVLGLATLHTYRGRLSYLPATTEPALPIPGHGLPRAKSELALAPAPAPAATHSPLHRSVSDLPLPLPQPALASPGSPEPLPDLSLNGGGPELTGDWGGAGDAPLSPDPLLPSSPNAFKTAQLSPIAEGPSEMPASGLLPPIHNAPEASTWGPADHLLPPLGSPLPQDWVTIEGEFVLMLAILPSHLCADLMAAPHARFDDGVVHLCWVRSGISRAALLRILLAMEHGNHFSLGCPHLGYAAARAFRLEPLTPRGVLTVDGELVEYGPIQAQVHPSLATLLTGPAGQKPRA

[13] = tested on: Rattus norvegicus; experiment: Reduction in circulating lymphocytes count in Lewis rat peripheral blood at 1 mg/kg, po measured after 24 hrs by hematology analyzer based analysis; format: functional
[14] = Drug metabolism in Cynomolgous monkey assessed as SphK2-mediated compound phosphorylation by measuring ratio of phosphorylated compound to parent compound measured after 24 hrs; format: ADME, Macaca fascicularis; details: cynomolgus monkey
[15] = tested on: Rattus norvegicus; experiment: Reduction in circulating lymphocytes count in Lewis rat peripheral blood at 1.5 mg/kg, po measured after 24 hrs by hematology analyzer based analysis; format: functional
[16] = Elimination half-life in po dose Lewis rat; format: ADME, organism-based; details: in vivo, read-out: beta t1/2
[17] = target: T2, Sphingosine kinase 2 (Homo sapiens, UniProt Q9NRA0); experiment: Drug metabolism in human assessed as SphK2-mediated compound phosphorylation by measuring ratio of phosphorylated compound to parent compound measured after 24 hrs; format: ADME
T2 sequence (Q9NRA0 whole entry): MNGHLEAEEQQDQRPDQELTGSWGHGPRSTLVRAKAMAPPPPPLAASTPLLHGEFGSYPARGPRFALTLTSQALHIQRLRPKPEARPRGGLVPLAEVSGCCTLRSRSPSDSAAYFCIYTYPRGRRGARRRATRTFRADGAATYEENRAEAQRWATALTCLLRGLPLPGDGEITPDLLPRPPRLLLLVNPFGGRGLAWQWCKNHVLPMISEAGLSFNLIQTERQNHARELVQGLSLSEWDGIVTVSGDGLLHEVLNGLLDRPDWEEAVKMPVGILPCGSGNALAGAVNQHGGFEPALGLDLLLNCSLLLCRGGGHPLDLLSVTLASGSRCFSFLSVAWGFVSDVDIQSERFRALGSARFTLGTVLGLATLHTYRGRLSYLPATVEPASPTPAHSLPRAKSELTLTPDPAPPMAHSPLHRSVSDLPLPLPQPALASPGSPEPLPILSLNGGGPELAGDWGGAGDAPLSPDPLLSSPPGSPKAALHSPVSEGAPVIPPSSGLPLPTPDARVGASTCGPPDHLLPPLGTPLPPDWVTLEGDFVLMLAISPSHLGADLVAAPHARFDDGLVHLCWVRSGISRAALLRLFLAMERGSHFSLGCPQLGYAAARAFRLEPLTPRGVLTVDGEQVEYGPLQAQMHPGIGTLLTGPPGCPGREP

[18] = organism: Homo sapiens; experiment: Reduction in absolute lymphocytes count in human at 1.5 mg/day; format: functional

## CCCCCC[C@@H]1CCc2cc([C@H]3CC[C@](N)(COP(=O)(O)O)C3)ccc2C1
[1]
  inhibition at 0.01 µM: 32%
[2]
  inhibition at 0.001 µM: 1%

## N[C@]1(CO)CC[C@H](c2ccc3c(c2)CC[C@@H](COc2ccc(F)cc2)C3)C1
[3]
  inhibition in vivo at 2 mg/kg: 74%
[4]
  half-life: 2760 min

## COc1ccc(OC[C@@H]2CCc3cc([C@H]4CC[C@](N)(CO)C4)ccc3C2)cc1
[3]
  inhibition in vivo at 2 mg/kg: 47%
[4]
  half-life: < 600 min

## COc1ccccc1CC[C@H]1CCc2cc([C@H]3CC[C@](N)(CO)C3)ccc2C1
[5]
  inhibition in vivo at 0.1 mg/kg: 17%

## COc1cccc(CO[C@H]2CCc3cc([C@H]4CC[C@](N)(CO)C4)ccc3C2)c1
[6]
  inhibition in vivo at 0.3 mg/kg: 13%

## N[C@]1(CO)CC[C@H](c2ccc3c(c2)CC[C@H](COCc2ccccc2)C3)C1
[6]
  inhibition in vivo at 0.3 mg/kg: 0%

## N[C@]1(CO)CC[C@H](c2ccc3c(c2)CC[C@@H](COCc2ccccc2)C3)C1
[6]
  inhibition in vivo at 0.3 mg/kg: 49%
[7]
  half-life: 660 min

## COc1ccccc1CC[C@@H]1CCc2cc([C@H]3CC[C@](N)(COP(=O)(O)O)C3)ccc2C1
[1]
  inhibition at 0.01 µM: 27%
[2]
  inhibition at 0.001 µM: 11%

## COc1ccccc1OC[C@@H]1CCc2cc([C@H]3CC[C@](N)(COP(=O)(O)O)C3)ccc2C1
[1]
  inhibition at 0.01 µM: 43%
[2]
  inhibition at 0.001 µM: 20%

## Cc1ccc(OC[C@@H]2CCc3cc([C@H]4CC[C@](N)(CO)C4)ccc3C2)cc1
[3]
  inhibition in vivo at 2 mg/kg: 20%
[4]
  half-life: 2100 min

## COc1ccccc1OC[C@@H]1CCc2cc([C@H]3CC[C@](N)(CO)C3)ccc2C1
[3]
  inhibition in vivo at 2 mg/kg: 85%
[4]
  half-life: 840 min

## COc1cccc(OC[C@H]2CCc3cc([C@H]4CC[C@](N)(CO)C4)ccc3C2)c1
[6]
  inhibition in vivo at 0.3 mg/kg: 70%

## N[C@]1(CO)CC[C@H](c2ccc3c(c2)CC[C@H](CSc2ccccc2)C3)C1
[6]
  inhibition in vivo at 0.3 mg/kg: 29%

## COc1ccc(OC[C@@H]2CCc3cc([C@H]4CC[C@](N)(CO)C4)ccc3C2)c(F)c1F
[3]
  inhibition in vivo at 2 mg/kg: 48%

## COc1ccccc1SC[C@@H]1CCc2cc([C@H]3CC[C@](N)(CO)C3)ccc2C1
[8]
  Activity: 67%
[3]
  inhibition in vivo at 2 mg/kg: 78 to 79%
[4]
  half-life: 1440 min

## COc1cccc(COC[C@@H]2CCc3cc([C@H]4CC[C@](N)(CO)C4)ccc3C2)c1
[6]
  inhibition in vivo at 0.3 mg/kg: 40%

## COc1cccc(OC[C@@H]2CCc3cc([C@H]4CC[C@](N)(COP(=O)(O)O)C4)ccc3C2)c1
[1]
  inhibition at 0.01 µM: 30%
[2]
  inhibition at 0.001 µM: 13%

## COc1cccc(OC[C@@H]2CCc3cc([C@H]4CC[C@](N)(CO)C4)ccc3C2)c1
[6]
  inhibition in vivo at 0.3 mg/kg: 80%
[9]
  Activity: Non-Toxic
[10]
  ED50: < 0.05 mg/kg
[11]
  inhibition in vivo at 0.05 mg/kg: 72%
[12]
  Ratio: 1.5
[3]
  inhibition in vivo at 2 mg/kg: 86%
[13]
  inhibition in vivo at 1 mg/kg: 80%
[7]
  half-life: 1440 min
[14]
  Ratio: 1.3
[15]
  inhibition in vivo at 1.5 mg/kg: 81%
[4]
  half-life: 1440 min

## COc1ccccc1SC[C@@H]1CCc2cc([C@H]3CC[C@](N)(COP(=O)(O)O)C3)ccc2C1
[1]
  inhibition at 0.01 µM: 26%
[2]
  inhibition at 0.001 µM: 16%

## N[C@]1(COP(=O)(O)O)CC[C@H](c2ccc3c(c2)CC[C@@H](COCc2ccccc2)C3)C1
[1]
  inhibition at 0.01 µM: 52%
[2]
  inhibition at 0.001 µM: 16%

## COc1cccc(CO[C@@H]2CCc3cc([C@H]4CC[C@](N)(CO)C4)ccc3C2)c1
[6]
  inhibition in vivo at 0.3 mg/kg: 15%

## COc1cccc(SC[C@@H]2CCc3cc([C@H]4CC[C@](N)(COP(=O)(O)O)C4)ccc3C2)c1
[1]
  inhibition at 0.01 µM: 44%
[2]
  inhibition at 0.001 µM: 30%

## COc1ccc(OC[C@@H]2CCc3cc([C@H]4CC[C@](N)(CO)C4)ccc3C2)cc1C(C)(C)C
[3]
  inhibition in vivo at 2 mg/kg: 53%

## N[C@]1(CO)CC[C@H](c2ccc3c(c2)CC[C@@H](CSc2ccccc2)C3)C1
[6]
  inhibition in vivo at 0.3 mg/kg: 31%
[3]
  inhibition in vivo at 2 mg/kg: 73%
[4]
  half-life: 1200 min

## COc1ccc(COC[C@@H]2CCc3cc([C@H]4CC[C@](N)(CO)C4)ccc3C2)cc1
[6]
  inhibition in vivo at 0.3 mg/kg: 33%

## COc1cccc(SC[C@@H]2CCc3cc([C@H]4CC[C@](N)(CO)C4)ccc3C2)c1
[3]
  inhibition in vivo at 2 mg/kg: 81%
[4]
  half-life: 1260 min

## CCCCCC[C@@H]1CCc2cc([C@H]3CC[C@](N)(CO)C3)ccc2C1 [BMS-986104]
[16]
  half-life: > 4.17 days
[10]
  ED50: 0.25 mg/kg
[12]
  Ratio: 2.5
[14]
  Ratio: 0.3
[17]
  Ratio: 0.1

## COc1ccccc1CC[C@@H]1CCc2cc([C@H]3CC[C@](N)(CO)C3)ccc2C1 [UDIFITIMOD]
[5]
  inhibition in vivo at 0.1 mg/kg: 53%
[10]
  ED50: 0.1 mg/kg
[12]
  Ratio: 5.2
[3]
  inhibition in vivo at 2 mg/kg: 81%
[18]
  inhibition (INH): >80%
[14]
  Ratio: 1
[17]
  Ratio: 0.6
[4]
  half-life: 1620 min
